This passage reports IC50 results from patent publication US20220112187A1, “PYRAZOLOPYRIDINE AMINE COMPOUNDS FOR THE TREATMENT OF AUTOIMMUNE DISEASE” (Hoffmann-La Roche Inc., priority 2018, published 2022).

The term IC50 denotes the concentration needed to halve the response being measured.

Each structure is given as a SMILES string.

For this assay, the target named is T1, human TLR9 (Homo sapiens, UniProt Q9NR96).
T1 sequence (Q9NR96 26-1032): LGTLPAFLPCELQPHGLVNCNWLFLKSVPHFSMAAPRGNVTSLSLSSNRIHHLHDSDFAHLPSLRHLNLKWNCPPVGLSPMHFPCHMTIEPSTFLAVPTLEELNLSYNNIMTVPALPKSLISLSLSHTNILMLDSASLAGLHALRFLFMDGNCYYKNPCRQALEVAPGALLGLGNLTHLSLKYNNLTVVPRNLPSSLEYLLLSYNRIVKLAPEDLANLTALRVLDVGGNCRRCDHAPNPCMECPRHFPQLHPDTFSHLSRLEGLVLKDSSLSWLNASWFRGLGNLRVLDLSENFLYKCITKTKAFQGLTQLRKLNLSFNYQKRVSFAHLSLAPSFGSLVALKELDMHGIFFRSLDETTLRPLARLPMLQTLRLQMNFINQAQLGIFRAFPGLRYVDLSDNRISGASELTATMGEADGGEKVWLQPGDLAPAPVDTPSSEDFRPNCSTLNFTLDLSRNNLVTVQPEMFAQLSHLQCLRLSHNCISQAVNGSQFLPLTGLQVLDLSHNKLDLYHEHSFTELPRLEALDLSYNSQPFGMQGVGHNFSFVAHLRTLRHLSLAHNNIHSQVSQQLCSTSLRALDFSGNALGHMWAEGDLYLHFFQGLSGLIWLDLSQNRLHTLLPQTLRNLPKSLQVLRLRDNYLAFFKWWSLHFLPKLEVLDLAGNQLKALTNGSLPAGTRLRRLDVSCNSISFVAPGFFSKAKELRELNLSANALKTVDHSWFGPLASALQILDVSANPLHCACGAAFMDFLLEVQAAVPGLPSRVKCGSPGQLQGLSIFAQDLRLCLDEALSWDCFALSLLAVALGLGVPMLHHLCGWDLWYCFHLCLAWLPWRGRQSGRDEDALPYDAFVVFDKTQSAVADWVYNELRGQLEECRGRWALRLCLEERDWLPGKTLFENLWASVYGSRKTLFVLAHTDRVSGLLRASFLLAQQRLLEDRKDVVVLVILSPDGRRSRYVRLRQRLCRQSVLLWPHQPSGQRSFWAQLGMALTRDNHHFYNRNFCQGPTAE
Briefly: HEK293-Blue-hTLR-9 cells assay (SEAP reporter, ODN2006 stimulation). It counts as cell-based. The conditions noted are these: HEK293-Blue-hTLR9 cells, ODN2006 ligand, 20 hrs incubation. An excerpt:
A stable HEK293-Blue-hTLR-9 cell line was purchased from InvivoGen (Cat. #: hkb-htlr9, San Diego, Calif., USA). These cells were originally designed for studying the stimulation of human TLR9 by monitoring the activation of NF-κB. A SEAP (secreted embryonic alkaline phosphatase) reporter gene was placed under the control of the IFN-β minimal promoter fused to five NF-κB and AP-1-binding sites. The SEAP was induced by activating NF-κB and AP-1 via stimulating HEK-Blue hTLR9 cells with TLR9 ligands. Therefore the reporter expression was declined by TLR9 antagonist under the stimulation of a ligand, such as ODN2006 (Cat. #: tlr1-2006-1, Invivogen, San Diego, Calif., USA), for incubation of 20 hrs. The cell culture supernatant SEAP reporter activity was determined using QUANTI-Blue™ kit (Cat. #: rep-qb1, Invivogen, San Diego, Calif., USA) at a wavelength of 640 nm, a detection medium that turns purple or blue in the presence of alkaline phosphatase.
HEK293-Blue-hTLR9 cells were incubated at a density of 250,000˜450,000 cells/mL in a volume of 170 μL in a 96-well plate in Dulbecco's Modified Eagle's medium (DMEM) containing 4.5 g/L glucose, 50 U/mL penicillin, […], […], 2 mM L-glutamine, 10% (v/v) heat-inactivated fetal bovine serum with addition of 20 μL test compound in a serial dilution in the presence of final DMSO at 1% and 10 μL of 20 uM ODN2006 in above DMEM, perform incubation under 37° C. in a CO2 incubator for 20 hrs. Then 20 μL of the supernatant from each well was incubated with 180 μL Quanti-blue substrate solution at 37° C. for 2 hrs and the absorbance was read at 620-655 nm using a spectrophotorneter. The signalling pathway that TLR9 activation leads to downstream NF-κB activation has been widely accepted, and therefore similar reporter assay was modified for evaluating TLR9 antagonist.
For the compound `C[C@@H]1CN(c2ccc(C#N)n3nccc23)C[C@H](CN2CC3(CC(N)C3)C2)O1` [Example 11, 4-[(2S,6R)-2-[(6-amino-2-azaspiro[3.3]heptan-2-yl)methyl]-6-methyl-morpholin-4-yl]pyrazolo[1,5-a]pyridine-7-carbonitrile], the IC50 came out at 97 nM. The value for `C[C@@H]1CN(c2ccc(C#N)n3nccc23)C[C@H](CNC2CCN(C)CC2)O1` [Example 7, 4-[(2R,6S)-2-methyl-6-[[(1-methyl-4-piperidyl)amino]methyl]morpholin-4-yl]pyrazolo[1,5-a]pyridine-7-carbonitrile] was 320 nM; that for `C[C@@H]1CN(c2ccc(C#N)n3nccc23)C[C@H](CN2C3CCC2CNC3)O1` [Example 43, 4-[(2S,6R)-2-(3,8-diazabicyclo[3.2.1]octan-8-ylmethyl)-6-methyl-morpholin-4-yl]pyrazolo[1,5-a]pyridine-7-carbonitrile] was 10000 nM; that for `CC1CNCCN1C[C@H]1CN(c2ccc(C#N)n3nccc23)C[C@@H](C)O1` (single isomer, unassigned) [Example 50A] was 16000 nM.

The compound `C[C@@H]1CN(c2ccc(C#N)n3nccc23)C[C@H](CN2CC3(CCCNC3)C2)O1` [Example 10, 4-[(2S,6R)-2-(2,8-diazaspiro[3.5]nonan-2-ylmethyl)-6-methyl-morpholin-4-yl]pyrazolo[1,5-a]pyridine-7-carbonitrile] yielded an IC50 of 80 nM. As to `C[C@@H]1CN(c2ccc(C#N)n3nccc23)C[C@H](CN2CCC3(CCNCC3)CC2)O1` [Example 3, 4-[(2S,6R)-2-(3,9-diazaspiro[5.5]undecan-3-ylmethyl)-6-methyl-morpholin-4-yl]pyrazolo[1,5-a]pyridine-7-carbonitrile], the midpoint of inhibition, the IC50, lay at 90 nM. The value for `C[C@@H]1CN(c2ccc(C#N)n3nccc23)C[C@H](CN2CC3CNCC3C2)O1` (stereo partly drawn) [Example 22, 4-[(2S,6R)-2-(2,3,3a,4,6,6a-hexahydro-1H-pyrrolo[3,4-c]pyrrol-5-ylmethyl)-6-methyl-morpholin-4-yl]pyrazolo[1,5-a]pyridine-7-carbonitrile] was 180 nM. The value for `C[C@@H]1CN(c2ccc(C#N)n3nccc23)C[C@H](CN2CCC(CN)CC2)O1` [Example 12, 4-[(2S,6R)-2-[[4-(aminomethyl)-1-piperidyl]methyl]-6-methyl-morpholin-4-yl]pyrazolo[1,5-a]pyridine-7-carbonitrile] was 200 nM; that for `C[C@@H]1CN(c2ccc(C#N)n3nccc23)C[C@H](CN2CCCC3(CCCNC3)C2)O1` (stereo partly drawn) [Example 23, 4-[(2S,6R)-2-(2,8-diazaspiro[5.5]undecan-2-ylmethyl)-6-methyl-morpholin-4-yl]pyrazolo[1,5-a]pyridine-7-carbonitrile] was 250 nM.

For `C[C@@H]1CN(c2ccc(C#N)n3nccc23)C[C@H](CN2CC3CCC2CN3)O1` (stereo partly drawn) [Example 30, 4-[(2S,6R)-2-(2,5-diazabicyclo[2.2.2]octan-2-ylmethyl)-6-methyl-morpholin-4-yl]pyrazolo[1,5-a]pyridine-7-carbonitrile], the IC50 is 3200 nM.

Take `C[C@@H]1CN(c2ccc(C#N)n3nccc23)C[C@H](CN2CC[C@@H]3CNCC32)O1` (stereo partly drawn) [Example 62, 4-[(2R,6S)-2-methyl-6-[[cis-(3aR,6aR)-3,3a,4,5,6,6a-hexahydro-2H-pyrrolo[3,4-b]pyrrol-1-yl]methyl]morpholin-4-yl]pyrazolo[1,5-a]pyridine-7-carbonitrile]: the IC50 was found to be 2400 nM. The result for `C[C@@H]1CN(c2ccc(C#N)n3nccc23)C[C@H](CN2CCN[C@H](c3ccccc3)C2)O1` [Example 38, 4-[(2R,6S)-2-methyl-6-[[(3R)-3-phenylpiperazin-1-yl]methyl]morpholin-4-yl]pyrazolo[1,5-a]pyridine-7-carbonitrile] reads 1900 nM.

In turn, `C[C@@H]1CN(c2ccc(C#N)n3nccc23)C[C@H](CN2CCC3(CCCNC3)C2)O1` (stereo partly drawn) [Example 25, 4-[(2S,6R)-2-(2,9-diazaspiro[4.5]decan-2-ylmethyl)-6-methyl-morpholin-4-yl]pyrazolo[1,5-a]pyridine-7-carbonitrile] displayed an IC50 of 88 nM. The value for `C[C@@H]1CN(c2ccc(C#N)n3nccc23)C[C@H](CN2CCC(N3CCNCC3)CC2)O1` [Example 39, 4-[(2R,6S)-2-methyl-6-[(4-piperazin-1-yl-1-piperidyl)methyl]morpholin-4-yl]pyrazolo[1,5-a]pyridine-7-carbonitrile] was 96 nM; that for `C[C@@H]1CN(c2ccc(C#N)n3nccc23)C[C@H](CN2CCC(C)(N)CC2)O1` [Example 29, 4-[(2S,6R)-2-[(4-amino-4-methyl-1-piperidyl)methyl]-6-methyl-morpholin-4-yl]pyrazolo[1,5-a]pyridine-7-carbonitrile] was 220 nM. The value for `C[C@@H]1CN(c2ccc(C#N)n3nccc23)C[C@H](CN2CC3CNCCC32)O1` (stereo partly drawn) [Example 52, 4-[(2S,6R)-2-(3,7-diazabicyclo[4.2.0]octan-7-ylmethyl)-6-methyl-morpholin-4-yl]pyrazolo[1,5-a]pyridine-7-carbonitrile] was 260 nM; that for `C[C@@H]1CN(c2ccc(C#N)n3nccc23)C[C@H](CN2C3COCC2CC(N)C3)O1` (stereo partly drawn) [Example 58, 4-[(2S,6R)-2-[(7-amino-3-oxa-9-azabicyclo[3.3.1]nonan-9-yl)methyl]-6-methyl-morpholin-4-yl]pyrazolo[1,5-a]pyridine-7-carbonitrile] was 390 nM. The value for `C[C@@H]1CN(c2ccc(C#N)n3nccc23)C[C@H](CN2CCC3(CCCNC3)CC2)O1` [Example 27, 4-[(2S,6R)-2-(2,9-diazaspiro[5.5]undecan-9-ylmethyl)-6-methyl-morpholin-4-yl]pyrazolo[1,5-a]pyridine-7-carbonitrile] was 65 nM. For the compound `C[C@@H]1CN(c2ccc(C#N)n3nccc23)C[C@H](CN2CCC3(CCCN3)CC2)O1` [Example 53, 4-[(2S,6R)-2-(1,8-diazaspiro[4.5]decan-8-ylmethyl)-6-methyl-morpholin-4-yl]pyrazolo[1,5-a]pyridine-7-carbonitrile], 160 nM corresponded to half-maximal inhibition (IC50). The value for `C[C@@H]1CN(c2ccc(C#N)n3nccc23)C[C@H](CN2CCC3(CCNCC3)C2)O1` [Example 18, 4-[(2S,6R)-2-(2,8-diazaspiro[4.5]decan-2-ylmethyl)-6-methyl-morpholin-4-yl]pyrazolo[1,5-a]pyridine-7-carbonitrile] was 89 nM. The result for `C[C@@H]1CN(c2ccc(C#N)n3nccc23)C[C@H](CN2CCC3(CCNC3)CC2)O1` [Example 19, 4-[(2S,6R)-2-(2,8-diazaspiro[4.5]decan-8-ylmethyl)-6-methyl-morpholin-4-yl]pyrazolo[1,5-a]pyridine-7-carbonitrile] reads 92 nM; that for `C[C@@H]1CN(c2ccc(C#N)n3ncc(F)c23)C[C@H](CN2CCC3(CCCNC3)C2)O1` (stereo partly drawn) [Example 69, 3-fluoro-4-[(2S,6R)-2-(2,9-diazaspiro[4.5]decan-2-ylmethyl)-6-methyl-morpholin-4-yl]pyrazolo[1,5-a]pyridine-7-carbonitrile], 130 nM. For `C[C@@H]1CN(c2ccc(C#N)n3nccc23)C[C@H](CN2CCC(CCN)CC2)O1` [Example 13, 4-[(2S,6R)-2-[[4-(2-aminoethyl)-1-piperidyl]methyl]-6-methyl-morpholin-4-yl]pyrazolo[1,5-a]pyridine-7-carbonitrile], the concentration for half-maximal inhibition (IC50) was 270 nM.
